Assay results as given in patent publication US20250289826A1, “PLPRO PROTEIN INHIBITOR, AND PREPARATION METHOD AND APPLICATION THEREOF” (priority 2022, published 2025).
Several values for one entry are separate records, joined by “and”; a condition that tells them apart may be missing. Equal entries are not always repeated.

Assays:
[1] = tested on: SARS-CoV-2 live virus (Delta strain); test: microbe, parasite or virus in culture; format: cell-based
[2] = molecular target: PLpro (Severe acute respiratory syndrome coronavirus 2 (2019-nCoV) (SARS-CoV-2), UniProt P0DTD1); test: Assay for PLpro inhibitory activity (Ub-AMC fluorescence; single point inhibition test and IC50 determination); format: biochemical; conditions: for IC50: fluorescence measured after 15 min of reaction; for inhibition at 1 µM: read-out: inhibition of PLpro (1 μM), 1 μM test compound, 100 nM PLpro, 10 μM Ub-AMC, 37° C. 30 min
[3] = Severe acute respiratory syndrome coronavirus 2, Calu-3, 48 h

Compound	IC50 [2]	inhibition at 1 µM [2]	further results
Cc1ccc(N2CC(N(C)C)C2)cc1C(=O)NC1(c2ccc(F)c3ncccc23)CC1 [Example C26]	38.3 ± 5.27 nM	95.9%	Inhibition rate/% ([1]; 3.125 nM, Calu-3 cells, Delta strain, 48 h, three replicate values): 2.076% and 45.3104% and −0.0016%; Inhibition rate/% ([1]; 6.25 nM, Calu-3 cells, Delta strain, 48 h, three replicate values): 37.9405% and 58.6715% and 67.2927%; Inhibition rate/% ([1]; 12.5 nM, Calu-3 cells, Delta strain, 48 h, three replicate values): −4.0599% and 50.6792% and 17.0436%; Inhibition rate/% ([1]; 25 nM, Calu-3 cells, Delta strain, 48 h, three replicate values): −64.656% and 17.2863% and 31.5856%; Inhibition rate/% ([1]; 50 nM, Calu-3 cells, Delta strain, 48 h, three replicate values): 92.4972% and 64.3219% and 67.0889%; Inhibition rate/% ([1]; 100 nM, Calu-3 cells, Delta strain, 48 h, three replicate values): 93.9064% and 96.0939%; Inhibition rate/% ([1]; 200 nM, Calu-3 cells, Delta strain, 48 h, three replicate values): 99.5887% and 99.6848%; Inhibition rate/% ([1]; 400 nM, Calu-3 cells, Delta strain, 48 h, three replicate values): 99.9327% and 99.8544%; EC50 [1, 3]: 36.3 ± 4.11 nM; EC90 [1, 3]: 73.1 ± 7.23 nM; inhibition at 0.1 µM ([1]; Severe acute respiratory syndrome coronavirus 2, Calu-3, 48 h, 100 nM, Calu-3 cells, Delta strain, 48 h, three replicate values, read-out: Inhibition rate/%): 92.2%; inhibition at 0.2 µM ([1]; Severe acute respiratory syndrome coronavirus 2, Calu-3, 48 h, 200 nM, Calu-3 cells, Delta strain, 48 h, three replicate values, read-out: Inhibition rate/%): 99.9%; inhibition at 0.4 µM ([1]; Severe acute respiratory syndrome coronavirus 2, Calu-3, 48 h, 400 nM, Calu-3 cells, Delta strain, 48 h, three replicate values, read-out: Inhibition rate/%): 100%; inhibition of SARS-CoV-2 live virus infecting human cells (in words) ([1]; in vitro experiment): can effectively inhibit SARS-CoV-2 live virus from infecting human cells
Cc1ccc(N2CC(N(C)C)C2)cc1C(=O)NC1(c2ccc(C)c3ncccc23)CC1 [Example C75]	4.71 ± 1.38 nM	99.4%	–
COc1ccc(C2(NC(=O)c3cc(N4CC(N(C)C)C4)ccc3C)CC2)c2cccnc12 [Example C76]	15.9 ± 3.25 nM	99.6%	–
Cc1ccc(N2CC(N(C)C)C2)cc1C(=O)NC1(c2cccc3c2OCCO3)CC1 [Example C77]	–	63%	–
Cc1ccc(N2CC(N(C)C)C2)cc1C(=O)NC1(c2cccc3c2OCO3)CC1 [Example C78]	–	25.4%	–
Cc1ccc(Br)cc1/C=N/C1(c2ccc(F)c3ncccc23)CC1 [Example C79]	–	16.5%	–
Cc1ccc(N2CC(N(C)C)C2)cc1/C=N/C1(c2ccc(F)c3ncccc23)CC1 [Example C80]	–	11.9%	–
Cc1ccc(N2CC(CN)C2)cc1C(=O)NC1(c2ccc(F)c3ncccc23)CC1 [Example C81]	–	37.1%	–
Cc1ccc(N2CC(C(C)(C)N)C2)cc1C(=O)NC1(c2ccc(F)c3ncccc23)CC1 [Example C82]	–	8.2%	–
Cc1ccc(N2CC(CN(C)C)C2)cc1C(=O)NC1(c2ccc(F)c3ncccc23)CC1 [Example C83]	–	24.2%	–
Cc1ccc(N2CC(N(C)C)C2)cc1CNC1(c2ccc(F)c3ncccc23)CC1 [Example C85]	–	45.7%	–
Cc1ccc(N)cc1CNC1(c2ccc(F)c3ncccc23)CC1 [Example C86]	–	33.5%	–
Cc1ccc(N)cc1C(=O)NC1(c2ccc(F)c3ncccc23)CC1 [Example C87]	–	23.1%	–
Cc1ccc(N2CC(N(C)C)C2)cc1C(=O)NC1(c2ccc(N(C)C)c3ccccc23)CC1 [Example C88]	175 nM	96.2%	–
Cc1ccc2c(C3(NC(=O)c4cc(N5CC(N(C)C)C5)ccc4C)CC3)ccc(F)c2n1 [Example C89]	119 nM	82%	–
[2H]C1([2H])C(N(C)C)C([2H])([2H])N1c1ccc(C)c(C(=O)NC2(c3ccc(F)c4ncccc34)CC2)c1 [Example C90]	69.8 nM	85%	–
Cc1ccc(N2CC(N(C)C)C2)cc1C(=O)NC1(c2cccc3c2ccn3C)CC1 [Example C91]	–	71%	–
